Test results taken from PubChem BioAssay (NCI).
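The compound was tested at five concentrations on cells cultured in 96-well plates, with a 48-hour exposure period. TGI: concentration producing complete growth inhibition.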

What was measured:
Experiment in all cases: NCI-60 cell line screen, 48 h
CAKI-1 renal = tested on: CAKI-1 renal
MCF7 breast = tested on: MCF7 breast
SF-539 CNS = tested on: SF-539 CNS
MOLT-4 leukemia = tested on: MOLT-4 leukemia
HL-60(TB) leukemia = tested on: HL-60(TB) leukemia
HOP-92 NSCLC = tested on: HOP-92 NSCLC
A549 NSCLC = tested on: A549 NSCLC
SW-620 colon = tested on: SW-620 colon
HCT-116 colon = tested on: HCT-116 colon
UACC-257 melanoma = tested on: UACC-257 melanoma
SK-OV-3 ovarian = tested on: SK-OV-3 ovarian
SK-MEL-2 melanoma = tested on: SK-MEL-2 melanoma
TK-10 renal = tested on: TK-10 renal
RXF 393 renal = tested on: RXF 393 renal
EKVX NSCLC = tested on: EKVX NSCLC
UACC-62 melanoma = tested on: UACC-62 melanoma
PC-3 prostate = tested on: PC-3 prostate
HT29 colon = tested on: HT29 colon
ACHN renal = tested on: ACHN renal
OVCAR-8 ovarian = tested on: OVCAR-8 ovarian
KM12 colon = tested on: KM12 colon
SNB-19 CNS = tested on: SNB-19 CNS
HS 578T breast = tested on: HS 578T breast
SK-MEL-28 melanoma = tested on: SK-MEL-28 melanoma
SK-MEL-5 melanoma = tested on: SK-MEL-5 melanoma
U251 CNS = tested on: U251 CNS
MDA-MB-435 = tested on: MDA-MB-435
SN12C renal = tested on: SN12C renal
MALME-3M melanoma = tested on: MALME-3M melanoma
SR leukemia = tested on: SR leukemia
786-0 renal = tested on: 786-0 renal
OVCAR-3 ovarian = tested on: OVCAR-3 ovarian
LOX IMVI melanoma = tested on: LOX IMVI melanoma
NCI/ADR-RES ovarian = tested on: NCI/ADR-RES ovarian
SNB-75 CNS = tested on: SNB-75 CNS
HCC-2998 colon = tested on: HCC-2998 colon
IGROV1 ovarian = tested on: IGROV1 ovarian
A498 renal = tested on: A498 renal
CCRF-CEM leukemia = tested on: CCRF-CEM leukemia
K-562 leukemia = tested on: K-562 leukemia
NCI-H23 lung = tested on: NCI-H23 lung
NCI-H226 lung = tested on: NCI-H226 lung
SF-295 CNS = tested on: SF-295 CNS
HOP-62 NSCLC = tested on: HOP-62 NSCLC
HCT-15 colon = tested on: HCT-15 colon
OVCAR-5 ovarian = tested on: OVCAR-5 ovarian
COLO 205 colon = tested on: COLO 205 colon
MDA-N = tested on: MDA-N
UO-31 renal = tested on: UO-31 renal
NCI-H460 lung = tested on: NCI-H460 lung
M14 melanoma = tested on: M14 melanoma
OVCAR-4 ovarian = tested on: OVCAR-4 ovarian
BT-549 breast = tested on: BT-549 breast
MDA-MB-231 breast = tested on: MDA-MB-231 breast
NCI-H522 lung = tested on: NCI-H522 lung
RPMI-8226 leukemia = tested on: RPMI-8226 leukemia
DU-145 prostate = tested on: DU-145 prostate
SF-268 CNS = tested on: SF-268 CNS

For CN(C)c1ccc(/C=N/N=C2\C(=O)Nc3c(Cl)cc(Cl)cc32)cc1, the TGI (CAKI-1 renal) was > 100 µM, the TGI (MCF7 breast) was > 100 µM and the TGI (SF-539 CNS) was > 100 µM. The TGI (MOLT-4 leukemia) was > 100 µM, the TGI (HL-60(TB) leukemia) was > 100 µM and the TGI (HOP-92 NSCLC) was > 100 µM. The TGI (A549 NSCLC) was > 100 µM, the TGI (SW-620 colon) was > 100 µM and the TGI (HCT-116 colon) was > 100 µM. For the same compound, the TGI (UACC-257 melanoma) was > 100 µM, the TGI (SK-OV-3 ovarian) was > 100 µM and the TGI (SK-MEL-2 melanoma) was > 100 µM. For the same compound, the TGI (TK-10 renal) was > 100 µM, the TGI (RXF 393 renal) was > 100 µM and the TGI (EKVX NSCLC) was > 100 µM. For the same compound, the TGI (UACC-62 melanoma) was > 100 µM, the TGI (PC-3 prostate) was > 100 µM and the TGI (HT29 colon) was > 100 µM. For the same compound, the TGI (ACHN renal) was > 100 µM, the TGI (OVCAR-8 ovarian) was > 100 µM and the TGI (KM12 colon) was 36.4 µM. For the same compound, the TGI (SNB-19 CNS) was > 100 µM, the TGI (HS 578T breast) was > 100 µM and the TGI (SK-MEL-28 melanoma) was > 100 µM. The TGI (SK-MEL-5 melanoma) was > 100 µM, the TGI (U251 CNS) was > 100 µM and the TGI (MDA-MB-435) was > 100 µM. The TGI (SN12C renal) was > 100 µM, the TGI (MALME-3M melanoma) was > 100 µM and the TGI (SR leukemia) was 33 µM. The TGI (786-0 renal) was > 100 µM, the TGI (OVCAR-3 ovarian) was > 100 µM and the TGI (LOX IMVI melanoma) was > 100 µM. The TGI (NCI/ADR-RES ovarian) was 89 µM, the TGI (SNB-75 CNS) was 56.9 µM and the TGI (HCC-2998 colon) was > 100 µM. The TGI (IGROV1 ovarian) was > 100 µM, the TGI (A498 renal) was > 100 µM and the TGI (CCRF-CEM leukemia) was > 100 µM. The TGI (K-562 leukemia) was > 100 µM, the TGI (NCI-H23 lung) was > 100 µM and the TGI (NCI-H226 lung) was > 100 µM. For the same compound, the TGI (SF-295 CNS) was > 100 µM, the TGI (HOP-62 NSCLC) was > 100 µM and the TGI (HCT-15 colon) was > 100 µM. The TGI (OVCAR-5 ovarian) was > 100 µM, the TGI (COLO 205 colon) was > 100 µM and the TGI (MDA-N) was 33.8 µM. The TGI (UO-31 renal) was > 100 µM, the TGI (NCI-H460 lung) was > 100 µM and the TGI (M14 melanoma) was > 100 µM. The TGI (OVCAR-4 ovarian) was > 100 µM, the TGI (BT-549 breast) was > 100 µM and the TGI (MDA-MB-231 breast) was > 100 µM.

For COC(=S)OC1CC(n2cnc3c(=O)[nH]cnc32)OC1CO[Si](C)(C)C(C)(C)C (centres undefined), the TGI (CAKI-1 renal) was > 100 µM, the TGI (MCF7 breast) was > 100 µM and the TGI (SF-539 CNS) was > 100 µM. The TGI (MOLT-4 leukemia) was > 100 µM, the TGI (HL-60(TB) leukemia) was > 100 µM and the TGI (HOP-92 NSCLC) was > 100 µM. For the same compound, the TGI (A549 NSCLC) was > 100 µM, the TGI (SW-620 colon) was > 100 µM and the TGI (HCT-116 colon) was > 100 µM. For the same compound, the TGI (UACC-257 melanoma) was > 100 µM, the TGI (SK-OV-3 ovarian) was > 100 µM and the TGI (SK-MEL-2 melanoma) was > 100 µM. The TGI (TK-10 renal) was > 100 µM, the TGI (RXF 393 renal) was > 100 µM and the TGI (EKVX NSCLC) was > 100 µM. For the same compound, the TGI (UACC-62 melanoma) was > 100 µM, the TGI (PC-3 prostate) was > 100 µM and the TGI (HT29 colon) was > 100 µM. For the same compound, the TGI (ACHN renal) was > 100 µM, the TGI (OVCAR-8 ovarian) was > 100 µM and the TGI (KM12 colon) was > 100 µM. For the same compound, the TGI (SNB-19 CNS) was > 100 µM, the TGI (HS 578T breast) was > 100 µM and the TGI (SK-MEL-28 melanoma) was > 100 µM. For the same compound, the TGI (NCI-H522 lung) was > 100 µM, the TGI (SK-MEL-5 melanoma) was > 100 µM and the TGI (U251 CNS) was > 100 µM. The TGI (MDA-MB-435) was > 100 µM, the TGI (SN12C renal) was > 100 µM and the TGI (MALME-3M melanoma) was > 100 µM. For the same compound, the TGI (SR leukemia) was > 100 µM, the TGI (786-0 renal) was > 100 µM and the TGI (RPMI-8226 leukemia) was > 100 µM. For the same compound, the TGI (OVCAR-3 ovarian) was > 100 µM, the TGI (LOX IMVI melanoma) was > 100 µM and the TGI (NCI/ADR-RES ovarian) was > 100 µM. The TGI (SNB-75 CNS) was > 100 µM, the TGI (IGROV1 ovarian) was > 100 µM and the TGI (DU-145 prostate) was > 100 µM. The TGI (A498 renal) was > 100 µM, the TGI (CCRF-CEM leukemia) was > 100 µM and the TGI (K-562 leukemia) was > 100 µM. The TGI (NCI-H23 lung) was > 100 µM, the TGI (NCI-H226 lung) was > 100 µM and the TGI (SF-295 CNS) was > 100 µM. The TGI (HOP-62 NSCLC) was > 100 µM, the TGI (HCT-15 colon) was > 100 µM and the TGI (OVCAR-5 ovarian) was > 100 µM. The TGI (COLO 205 colon) was > 100 µM, the TGI (MDA-N) was > 100 µM and the TGI (NCI-H460 lung) was > 100 µM. For the same compound, the TGI (M14 melanoma) was > 100 µM, the TGI (OVCAR-4 ovarian) was > 100 µM and the TGI (MDA-MB-231 breast) was > 100 µM. The TGI (SF-268 CNS) was > 100 µM.
